# In the supplement of paper PMC10307832:
# Assays:
# Assay in all cases: relative viability (nuclei count vs DMSO), 5 days (fraction); higher = more cells survive
# GSK126 + Luminespib = compound: CC[C@H](C)N1C=C(C2=C(C=C(C=C21)C3=CN=C(C=C3)N4CCNCC4)C(=O)NCC5=C(C=C(NC5=O)C)C)C [GSK126] + CCNC(=O)c1noc(-c2cc(C(C)C)c(O)cc2O)c1-c1ccc(CN2CCOCC2)cc1 [Luminespib] (partner 0.01 µM)
# Summary of the method: (§1)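 After 5 days of treatment, lung cancer cells in 1536-well plates were fixed and stained in a single step (final 0.05% Triton X-100, 1% formaldehyde, 1 ug/ml Hoechst) and their nuclei counted on 4× images. Treatment had been applied by pin tool the day after seeding as one drug alone or as a fixed anchor-drug dose with five library-drug doses (not always all listed) in √10 steps. Relative viability is the nuclei count of treated wells divided by that of vehicle wells, and values are medians of duplicate plates.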
# GSK126 + Tozasertib = compound: CC[C@H](C)N1C=C(C2=C(C=C(C=C21)C3=CN=C(C=C3)N4CCNCC4)C(=O)NCC5=C(C=C(NC5=O)C)C)C [GSK126] + Cc1cc(Nc2cc(N3CCN(C)CC3)nc(Sc3ccc(NC(=O)C4CC4)cc3)n2)n[nH]1 [Tozasertib] (partner 0.1 µM)
# Summary of the method: as §1
# GSK126 + Dasatinib = compound: CC[C@H](C)N1C=C(C2=C(C=C(C=C21)C3=CN=C(C=C3)N4CCNCC4)C(=O)NCC5=C(C=C(NC5=O)C)C)C [GSK126] + Cc1nc(Nc2ncc(C(=O)Nc3c(C)cccc3Cl)s2)cc(N2CCN(CCO)CC2)n1 [Dasatinib] (partner 0.075 µM)
# Summary of the method: as §1
# MLN4924 + Vorinostat = compound: NS(=O)(=O)OC[C@@H]1C[C@@H](n2ccc3c(N[C@H]4CCc5ccccc54)ncnc32)C[C@@H]1O [MLN4924] + O=C(CCCCCCC(=O)Nc1ccccc1)NO [Vorinostat] (partner 1 µM)
# Summary of the method: as §1
cell line,measurement,setting,value
UMC-11,relative viability,GSK126 + Luminespib; first compound 0.08 µM,1.19
same,relative viability,GSK126 + Luminespib; first compound 0.253 µM,1.07
same,relative viability,GSK126 + Luminespib; first compound 0.8 µM,1.04
same,relative viability,GSK126 + Luminespib; first compound 2.53 µM,1.07
same,relative viability,GSK126 + Luminespib; first compound 8 µM,1.31
same,relative viability,GSK126 + Tozasertib; first compound 0.08 µM,0.205
same,relative viability,GSK126 + Tozasertib; first compound 0.253 µM,0.209
same,relative viability,GSK126 + Tozasertib; first compound 0.8 µM,0.197
same,relative viability,GSK126 + Tozasertib; first compound 2.53 µM,0.188
same,relative viability,GSK126 + Tozasertib; first compound 8 µM,0.199
same,relative viability,GSK126 + Dasatinib; first compound 0.08 µM,0.512
same,relative viability,GSK126 + Dasatinib; first compound 0.253 µM,0.475
same,relative viability,GSK126 + Dasatinib; first compound 0.8 µM,0.443
same,relative viability,GSK126 + Dasatinib; first compound 2.53 µM,0.417
same,relative viability,GSK126 + Dasatinib; first compound 8 µM,0.437
same,relative viability,MLN4924 + Vorinostat; first compound 0.04 µM,0.173
same,relative viability,MLN4924 + Vorinostat; first compound 0.1265 µM,0.169
same,relative viability,MLN4924 + Vorinostat; first compound 0.4 µM,0.19
same,relative viability,MLN4924 + Vorinostat; first compound 1.265 µM,0.144
same,relative viability,MLN4924 + Vorinostat; first compound 4 µM,0.116
